Test results taken from patent US6476018B1, “Fused imidazole derivatives as multidrug resistance modulators” (Janssen Pharmaceutica N.V., priority 1996, dated 2002).

Tested on: P388/ADR (adriamycine resistance cell line) murine leukemia
Assay: MDR in vivo test: reversal of adriamycine resistance in P388/ADR murine leukemia (survival)
Settings: P388/ADR mice, daily i.p. day 1-10
Method: Male B6D2F1 mice (18-21 g) were injected intraperitoneally with 1×10^5 P388/ADR cells at day 0. Daily intraperitoneal treatment with adriamycine, a test compound of formula (I) or a combination of both was installed from day 1 until day 10. Control animals received the vehicle (15% 4-OH-propyl-β-cyclodextrine in saline). Each group consisted of 8 animals. Adriamycine was dosed at a concentration of 1.25 mg/kg body weight, half the maximal tolerable dose of adriamycine in this treatment schedule. The test compound was dosed at 20, 10, 5, 2.5, 1.25 and 0.63 mg/kg either as single treatment or combined with adriamycine.
Survival of the animals was recorded each day and expressed as a percentage of the median survival in the treated groups compared to the median survival in the control group, the latter to be said to be 100%.
Table C-1 lists the effect of compound 6 and adriamycine on the survival of mice injected with P388/ADR leukemia.
doses of compound 6 and adriamycine are expressed as mg/kg body weight.
the column “Survival Days” give the median day of death after inoculation of 1×10^5 P388/ADR cells at day 0, with the minimum and maximum number of days shown in parantheses
column “% Change vs. ADR” give the difference in MST % of the different groups compared to the MST % in the adriamycine-monotherapy group.

| SMILES | Survival Days med (min-max) (compound 6 5 mg/kg, adriamycine 0 mg/kg) | MST % (compound 6 20 mg/kg, adriamycine 0 mg/kg, control = 100%) | Survival Days med (min-max) (compound 6 0 mg/kg, adriamycine 1.25 mg/kg) |
| --- | --- | --- | --- |
| COC(=O)c1cnc2n1CCc1ccccc1C2=C1CCN(CCc2ccc(OCc3ccc4ccccc4n3)cc2)CC1 [Compound 6, methyl 6,11-dihydro-11-[1-[2-[4-(2-quinolinylmethoxy)phenyl]ethyl]-4-piperidinylidene]-5H-imidazo[2,1-b][3]-benzazepine-3-carboxylate] | 11.5 (10-13) days | 1oo |  |
| COc1cccc2c1C(=O)c1c(O)c3c(c(O)c1C2=O)C[C@@](O)(C(=O)CO)C[C@@H]3O[C@H]1C[C@H](N)[C@H](O)[C@H](C)O1 [Adriamycine, adriamycine, reference compound] |  |  | 13 (12-15) days |
